Assays:
[1] = tested on: Trichomonas vaginalis; assay: Antiparasitic activity against Trichomonas vaginalis JT assessed as inhibition of parasite growth incubated for 24 hrs by flow cytometric analysis; type: functional, organism-based
[2] = tested on: Trichomonas vaginalis; assay: Antiparasitic activity against Trichomonas vaginalis JT assessed as inhibition of parasite growth incubated for 48 hrs by flow cytometric analysis; type: functional, organism-based
[3] = Cytotoxicity against human HeLa cells assessed as reduction in cell viability incubated for 24 hrs by MTT assay; type: toxicity, cell-based
[4] = Cytotoxicity against human HeLa cells assessed as reduction in cell viability incubated for 48 hrs by MTT assay; type: toxicity, cell-based
[5] = Selectivity index, ratio of CC50 for cytotoxicity against human […] cells incubated for 24 hrs to IC50 for antiparasitic activity against Trichomonas vaginalis JT assessed as inhibition of parasite growth incubated for 24 hrs; type: toxicity, cell-based; details: read-out: Ratio CC50/IC50
[6] = Selectivity index, ratio of CC50 for cytotoxicity against human […] cells incubated for 48 hrs to IC50 for antiparasitic activity against Trichomonas vaginalis JT assessed as inhibition of parasite growth incubated for 48 hrs; type: toxicity, cell-based; details: read-out: Ratio CC50/IC50
[7] = tested on: Trichomonas vaginalis; assay: Potency index, ratio of metronidazole IC50 to test compound IC50 for antiparasitic activity against Trichomonas vaginalis JT assessed as inhibition of parasite growth incubated for 48 hrs by flow cytometric analysis; type: functional
[8] = tested on: Trichomonas vaginalis; assay: Selectivity index, ratio of IC50 for antiparasitic activity against Trichomonas vaginalis JT assessed as inhibition of parasite growth incubated for 24 hrs to IC50 for antiparasitic activity against Trichomonas vaginalis JT assessed as inhibition of parasite growth incubated for 48 hrs; type: functional
[9] = tested on: Trichomonas vaginalis; assay: Selectivity index, ratio of IC50 for antiparasitic activity against Trichomonas vaginalis JT assessed as inhibition of parasite growth incubated for 48 hrs to IC50 for antiparasitic activity against Trichomonas vaginalis JT assessed as inhibition of parasite growth incubated for 24 hrs; type: functional

Compound	IC50 [1] [µM]	IC50 [2] [µM]	CC50 at 24 h [3] [µM]	CC50 at 48 h [4] [µM]	selectivity ratio at 24 h [5]	selectivity ratio at 48 h [6]	Ratio IC50 [7]	Ratio IC50 [8]	Ratio IC50 [9]
COc1ccc(-n2cc(C(=O)OCCn3cnc([N+](=O)[O-])c3)cn2)cc1	18.8	24.4	211	141	11.1	5.78			
Cc1ncc([N+](=O)[O-])n1CCO [METRONIDAZOLE]	4.9	39.7	666	286	136	7.19			
O=C(OCCn1cnc([N+](=O)[O-])c1)c1cnn(-c2cccc(F)c2)c1	18.2	18	185	100	10.1	5.58			
O=C(OCCn1cnc([N+](=O)[O-])c1)c1cnn(-c2ccc(F)cc2)c1	10.1	3.8	214	182	21	48.2	<=19.2	~2.5	
O=C(OCCn1cnc([N+](=O)[O-])c1)c1cnn(-c2ccc(Cl)cc2)c1	4.8	10.3	195	177	40.3	17			~2
O=C(OCCn1cnc([N+](=O)[O-])c1)c1cnn(-c2cccc(Br)c2)c1	5.2	2.1	148	111	28.1	53.8	<=19.2	~2.5	
O=[N+]([O-])c1cn(CCO)cn1	19.9	40.6	120	212	6	5.22			
O=C(OCCn1cnc([N+](=O)[O-])c1)c1cnn(-c2ccc(Br)cc2)c1	15	18.6	69.3	90.4	4.6	4.86			
O=C(OCCn1cnc([N+](=O)[O-])c1)c1cnn(-c2ccccc2)c1	7.5	12.6	236	98	31.4	7.7			
O=C(OCCn1cnc([N+](=O)[O-])c1)c1cnn(-c2cccc(Cl)c2)c1	10.3	8	218	84.9	21	10.5			
O=C(OCCn1cnc([N+](=O)[O-])c1)c1cnn(-c2ccc(Cl)c(Cl)c2)c1	5.3	35.5	584	313	110	8.81			
O=C(OCCn1cnc([N+](=O)[O-])c1)c1cnn(-c2cc(Cl)cc(Cl)c2)c1	13.8	4.4	266	164	19.2	37	<=19.2		
